The NIST ThermoML archive (doi:10.1016/j.tca.2016.05.012)
“And” between values parts separate entries of the source, which are not always exact repeats. Equal values may be shown once. Numbers after ± are expanded uncertainties.

Test: molar heat capacity at constant pressure
Conditions: 101.33 kPa, Crystal, Small sample (50 mg) DSC

[Pb].[Pb].[Pb].[U] [uranium trilead]
molar heat capacity at constant pressure (316.34 K): 102.56 ± 1.8 J/K/mol and 102.48 ± 1.8 J/K/mol | molar heat capacity at constant pressure (326.01 K): 102.76 ± 1.8 J/K/mol and 102.64 ± 1.8 J/K/mol | molar heat capacity at constant pressure (336.81 K): 102.96 ± 1.8 J/K/mol and 102.76 ± 1.8 J/K/mol | molar heat capacity at constant pressure (346.52 K): 102.92 ± 1.8 J/K/mol and 103.16 ± 1.8 J/K/mol | molar heat capacity at constant pressure (356.26 K): 103 ± 1.8 J/K/mol and 103.32 ± 1.8 J/K/mol | molar heat capacity at constant pressure (366.02 K): 103.12 ± 1.8 J/K/mol and 103.44 ± 1.8 J/K/mol | molar heat capacity at constant pressure (375.81 K): 103.24 ± 1.8 J/K/mol and 103.6 ± 1.8 J/K/mol | molar heat capacity at constant pressure (385.63 K): 103.36 ± 1.8 J/K/mol and 103.72 ± 1.8 J/K/mol | molar heat capacity at constant pressure (395.49 K): 103.44 ± 1.8 J/K/mol and 103.88 ± 1.8 J/K/mol | molar heat capacity at constant pressure (405.37 K): 103.52 ± 1.8 J/K/mol and 104 ± 1.8 J/K/mol | molar heat capacity at constant pressure (415.29 K): 104.12 ± 1.8 J/K/mol and 103.64 ± 1.8 J/K/mol | molar heat capacity at constant pressure (425.25 K): 104.24 ± 1.8 J/K/mol and 103.72 ± 1.8 J/K/mol | molar heat capacity at constant pressure (435.23 K): 104.32 ± 1.8 J/K/mol and 103.8 ± 1.8 J/K/mol | molar heat capacity at constant pressure (445.22 K): 104.44 ± 1.8 J/K/mol and 103.88 ± 1.8 J/K/mol | molar heat capacity at constant pressure (455.21 K): 104.56 ± 1.8 J/K/mol and 103.96 ± 1.8 J/K/mol | molar heat capacity at constant pressure (465.2 K): 104.64 ± 1.8 J/K/mol and 104 ± 1.8 J/K/mol | molar heat capacity at constant pressure (475.19 K): 104.72 ± 1.8 J/K/mol and 104.08 ± 1.8 J/K/mol | molar heat capacity at constant pressure (485.18 K): 104.8 ± 1.8 J/K/mol and 104.16 ± 1.8 J/K/mol | molar heat capacity at constant pressure (495.17 K): 104.92 ± 1.8 J/K/mol and 104.2 ± 1.8 J/K/mol | molar heat capacity at constant pressure (505.15 K): 105 ± 1.8 J/K/mol and 104.28 ± 1.8 J/K/mol | molar heat capacity at constant pressure (515.13 K): 105.08 ± 1.8 J/K/mol and 104.32 ± 1.8 J/K/mol | molar heat capacity at constant pressure (525.11 K): 105.12 ± 1.8 J/K/mol and 104.4 ± 1.8 J/K/mol | molar heat capacity at constant pressure (535.04 K): 105.2 ± 1.8 J/K/mol and 104.44 ± 1.8 J/K/mol | molar heat capacity at constant pressure (544.83 K): 105.28 ± 1.8 J/K/mol and 104.48 ± 1.8 J/K/mol | molar heat capacity at constant pressure (554.76 K): 105.36 ± 1.8 J/K/mol and 104.52 ± 1.8 J/K/mol | molar heat capacity at constant pressure (564.58 K): 105.4 ± 1.8 J/K/mol and 104.56 ± 1.8 J/K/mol | molar heat capacity at constant pressure (574.42 K): 105.48 ± 1.8 J/K/mol and 104.64 ± 1.8 J/K/mol | molar heat capacity at constant pressure (584.3 K): 105.52 ± 1.8 J/K/mol and 104.68 ± 1.8 J/K/mol | molar heat capacity at constant pressure (594.25 K): 105.6 ± 1.8 J/K/mol and 104.72 ± 1.8 J/K/mol | molar heat capacity at constant pressure (604.13 K): 105.64 ± 1.8 J/K/mol and 104.76 ± 1.8 J/K/mol
